Drawing on US8748436B2, “Carboxylic acid derivatives having a 2,5,7-substituted oxazolopyrimidine ring” (Sanofi, priority 2010, dated 2014), this text covers activation for 13 compounds.

For the assay, the target named is T1, human Edg-1 receptor (Homo sapiens, UniProt P21453).
T1 construct: FLAG (N); expressed in transfected cells; membrane preparation
T1 sequence (P21453 whole entry): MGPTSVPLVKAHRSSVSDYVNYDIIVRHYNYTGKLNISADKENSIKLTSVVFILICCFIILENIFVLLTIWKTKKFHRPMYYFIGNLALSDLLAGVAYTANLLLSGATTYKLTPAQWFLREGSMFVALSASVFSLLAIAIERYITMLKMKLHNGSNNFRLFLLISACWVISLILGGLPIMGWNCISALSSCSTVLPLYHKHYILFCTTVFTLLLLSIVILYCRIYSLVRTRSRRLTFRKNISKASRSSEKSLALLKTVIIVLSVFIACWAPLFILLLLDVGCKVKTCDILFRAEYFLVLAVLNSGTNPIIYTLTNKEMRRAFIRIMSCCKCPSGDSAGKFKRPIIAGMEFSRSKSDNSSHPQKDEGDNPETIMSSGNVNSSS
Put plainly: GTP-γ-S assay using human Edg-1 receptors (scintillation proximity assay, CHO Flp-In cell membrane preparation). It counts as biochemical. As to conditions: test compound at 10 μM; high control 10 μM S1P regarded as 100% activation; [35S]GTP-γ-S binding, triplicate; read-out: % Activation (Edg-1 receptor activation in percent of the activation by 10 μM S1P). The text has this: A) GTP-γ-S Assay Using Human Edg-1 Receptors
In order to determine the Edg-1 receptor activation by the compounds of the invention, a GTP-γ-S (guanosine 5′-[thio]triphosphate) assay for G-protein coupled receptor binding based on the scintillation proximity assay principle was used, employing a cell membrane preparation from a CHO Flp-In cell line which constitutively overexpresses the human Edg-1 receptor.
The Flp-In™ expression system (Invitrogen, cat. no. K6010-01) allows the generation of stable mammalian cell lines into which the gene of interest has been integrated through homologous recombination at a specific genomic location called Flp Recombination Target (FRT) site by means of a Flp recombinase encoded by the pOG44 expression plasmid. The integration of the pcDNA5/FRT expression construct into the Flp-In host cell line genome results in the transcription of the gene of interest. The stably transfected cells become hygromycin-resistant.
One day prior to transfection, 200 000 Flp-In-CHO cells were seeded in Ham F-12 medium (Invitrogen, cat. no. 31765) supplemented with 10% fetal calf serum (FCS; Perbio Science, cat. no. SH30068.03) in a 6-well plate and incubated at 37° C./5% CO2 overnight. Using the FuGENE® 6 transfection reagent (Roche, cat. no. 11988387001), cells were cotransfected with the Flp recombinase expression plasmid pOG44 and a modified plasmid additionally containing the edg-1 gene (accession no. NM_001400) termed as pcDNA5-FRT-TO_nFLAG_DEST-EDG-1 with a 9:1 ratio. To obtain the modified pcDNA5-FRT-TO_nFLAG_DEST plasmid, the Invitrogen plasmid pcDNA5/FRT/TO (Invitrogen, cat. no. V6520-20) was adapted to the Gateway® (Invitrogen) cloning system by inserting a Gateway cassette containing attR recombination sites flanking a ccdB gene and a chloramphenicol-resistance gene (Gateway conversion system, Invitrogen, cat. no. 11828-029). In addition a FLAG tag epitope was added before the 5′ att recombination site to allow recombinant expression of N-terminally FLAG-tagged proteins.
For the transfection of one well, 1.08 μg of pOG44 and 0.12 μg of pcDNA5-FRT-TO_nFLAG_DEST-EDG-1 were mixed to 100 μl of serum-free Ham F-12 medium containing 6 μl of FuGENE® 6 transfection reagent. After 20 min of incubation, the transfection reagent/DNA complex was distributed dropwise on the cells. The cells were incubated for 24 h at 37° C. Then the cells from 3 wells were transferred to a T75 flask (Greiner Cellstar®, cat. no. 658175) containing Ham F-12 medium supplemented with 10% of FCS but without antibiotic and were incubated another 24 h. 48 h after transfection, the medium was replaced by selection medium (Ham F-12 supplemented with 10% of FCS and 300 μg/ml of hygromycin B (Invitrogen, cat. no. 10687-010)). The medium was exchanged every 2 to 3 days until a resistant population of cells had grown. […] After 2 weeks of selection, the cells were transferred into T175 flasks (Greiner Cellstar®, cat. no. 660175) and cultivated for batch production. Cells were harvested from the culture flasks by short treatment (2 to 5 min) with Accutase (PAA, cat. no. L11-007), resuspended in selection medium (see above) and centrifuged at 200×g for 5 min. The cells were resuspended in a mixture of 90% of FCS and 10% of dimethylsulfoxide and stored frozen in liquid nitrogen.
A membrane preparation was obtained by standard methods from the afore-described CHO Flp-In cell line constitutively overexpressing the human Edg-1 receptor. Briefly, the cryopreserved cells were taken in culture and grown until confluency in T175 cell culture flasks (Becton Dickinson, cat. no. 35 5001). […]
(Scintillation proximity formats need no separation of bound from free tracer.)
Regarding `CCCOc1nc(O[C@@H]2CCCC[C@H]2F)nc2oc(-c3cc(C)c(OCC(=O)O)c(C)c3)nc12` (relative stereo) [Example 3, {4-[5-(trans-2-Fluoro-cyclohexyloxy)-7-propoxy-oxazolo[5,4-d]pyrimidin-2-yl]-2,6-dimethyl-phenoxy}-acetic acid], the activation at 10 µM is 65%.
On to `CCCOc1nc(Oc2cc(F)ccc2F)nc2oc(-c3cc(C)c(OCC(=O)O)c(C)c3)nc12` [Example 1, {4-[5-(2,5-Difluoro-phenoxy)-7-propoxy-oxazolo[5,4-d]pyrimidin-2-yl]-2,6-dimethyl-phenoxy}-acetic acid], for which the activation at 10 µM is 100%.
For the compound `CCCOc1nc(OC2CCCC2)nc2oc(-c3cc(C)c(OCC(=O)O)c(C)c3)nc12` [Example 2, [4-(5-Cyclopentyloxy-7-propoxy-oxazolo[5,4-d]pyrimidin-2-yl)-2,6-dimethyl-phenoxy]-acetic acid], the activation at 10 µM was 90%.
Take `CCCOc1nc(Oc2ccccc2F)nc2oc(-c3cc(C)c(OCC(=O)O)c(C)c3)nc12` [Example 4, {4-[5-(2-fluoro-phenoxy)-7-propoxy-oxazolo[5,4-d]pyrimidin-2-yl]-2,6-dimethyl-phenoxy}-acetic acid]: the activation at 10 µM is 76%.
With `CCCOc1nc(Oc2cc(F)ccc2C)nc2oc(-c3cc(C)c(OCC(=O)O)c(C)c3)nc12` [Example 5, {4-[5-(5-fluoro-2-methyl-phenoxy)-7-propoxy-oxazolo[5,4-d]pyrimidin-2-yl]-2,6-dimethyl-phenoxy}-acetic acid] the figure was 91%; with `CCCOc1nc(Oc2ccc(C)c(F)c2)nc2oc(-c3cc(C)c(OCC(=O)O)c(C)c3)nc12` [Example 6, {4-[5-(3-fluoro-4-methyl-phenoxy)-7-propoxy-oxazolo[5,4-d]pyrimidin-2-yl]-2,6-dimethyl-phenoxy}-acetic acid], 73%.
In the case of `CCCOc1nc(Oc2cccnc2)nc2oc(-c3cc(C)c(OCC(=O)O)c(C)c3)nc12` [Example 7, {2,6-dimethyl-4-[7-propoxy-5-(pyridin-3-yloxy)-oxazolo[5,4-d]pyrimidin-2-yl]-phenoxy}-acetic acid] it was 87%; in that of `CCCOc1nc(Oc2ccc(F)cc2F)nc2oc(-c3cc(C)c(OCC(=O)O)c(C)c3)nc12` [Example 8, {4-[5-(2,4-difluoro-phenoxy)-7-propoxy-oxazolo[5,4-d]pyrimidin-2-yl]-2,6-dimethyl-phenoxy}-acetic acid], 84%.
In the case of `CCCOc1nc(Oc2ccccc2)nc2oc(-c3cc(C)c(OCC(=O)O)c(C)c3)nc12` [Example 9, [2,6-dimethyl-4-(5-phenoxy-7-propoxy-oxazolo[5,4-d]pyrimidin-2-yl)-phenoxy]-acetic acid] it was 84%; in that of `CCCOc1nc(Oc2cccc(Cl)c2)nc2oc(-c3cc(C)c(OCC(=O)O)c(C)c3)nc12` [Example 10, {4-[5-(3-chloro-phenoxy)-7-propoxy-oxazolo[5,4-d]pyrimidin-2-yl]-2,6-dimethyl-phenoxy}-acetic acid], 86%; in that of `CCCOc1nc(OCC2CCCCC2)nc2oc(-c3cc(C)c(OCC(=O)O)c(C)c3)nc12` [Example 11, [4-(5-cyclohexylmethoxy-7-propoxy-oxazolo[5,4-d]pyrimidin-2-yl)-2,6-dimethyl-phenoxy]-acetic acid], 76%.
With `CCCOc1nc(OCC(C)C)nc2oc(-c3cc(C)c(OCC(=O)O)c(C)c3)nc12` [Example 12, [4-(5-isobutoxy-7-propoxy-oxazolo[5,4-d]pyrimidin-2-yl)-2,6-dimethyl-phenoxy]-acetic acid], the activation at 10 µM stood at 97%.
Regarding `CCCOc1nc(OCC2CCC2)nc2oc(-c3cc(C)c(OCC(=O)O)c(C)c3)nc12` [Example 13, [4-(5-cyclobutylmethoxy-7-propoxy-oxazolo[5,4-d]pyrimidin-2-yl)-2,6-dimethyl-phenoxy]-acetic acid], the activation at 10 µM was 99%.
